# Source: patent publication US20160237146A1, “Methods of Preventing or Reducing Photoreceptor Cell Death” (MASSACHUSETTS EYE AND EAR INFIRMARY, priority 2013, published 2016)
# “Also recorded” adds a separate entry of the source.
# Columns and labels:
# [1] = system: photoreceptor cell death in response to RD; assay: Mouse model of retinal detachment, TUNEL labeling of the ONL; assay type: in vivo, mice
# Experimental: Briefly, RD was created in the right eye of adult mice (8-12 weeks), as previously reported (Hisatomi, T. et al., Am J Pathol, 2001, 158:1271-1278), with minor modification. Briefly, mice were anesthetized using a mixture of ketamine (80 mg/kg) and xylazine (8 mg/kg). Deep anesthesia was confirmed by a toe pinch test. One drop of proparacaine hydrochloride (0.5%) (Akorn, 17478-263-12) was administered to each eye. A self-sealing scleral incision was made using a 30 G needle. Next, an anterior chamber puncture was performed from the cornea to reduce intraocular pressure. A 33 G needle attached to a Hamilton 10 μl syringe was inserted into the subretinal space, and 4 μl sodium hyaluronate (Provisc®, Alcon) was gently injected to enlarge the RD (fundus Image of a retinal detachment; FIG. 7A) (Matsumoto, H. et al., J Vis Exp, 2013, (79)). After the injection, glue (Webglue™) was put on the scleral wound and the conjunctiva reattached to the original position. Photoreceptor apoptosis was assessed (12-72 hours post detachment) by identifying TUNEL positive cells in cross sections (FIGS. 7C and D).
# Twenty-four hours post-injury, retinas were isolated and cross-sections were prepared for staining with DAPI (a nuclear marker) and TUNEL (a cell death marker). The mid-point of the retinal arc between the optic nerve and the edge of the retina was quantified for TUNEL positive cells.
# The model of retinal detachment was performed precisely as described above with one modification: Prior to injecting the provisc 1 μl of the purified C3 antibody (0.1 μg) or IgG2a isotype control (Life Technologies, 02-9688) was injected into the sub-retinal space through the scleral tunnel. The eyes were enucleated 24 hours after RD and processed for TUNEL labeling as described earlier.
# [2] = system: Fb; details: retina 24 hours after RD, mice kept in 75% oxygen vs room air
# Experimental: RNA was isolated using an RNeasy micro kit (Qiagen, 74004, Valencia, Calif.) for LCM samples or an RNeasy mini kit (Qiagen, 74106, Valencia, Calif.) for whole retina. Total RNA was measured using a nanodrop spectrophotometer (Thermo Scientific, Nanodrop 2000, Waltham, Mass.) then each sample was normalized prior to transcribing cDNA. cDNA was transcribed using superscript III (Invitrogen, 18080-044, Carlsbad, Calif.) then one microliter of cDNA was used for each RTPCR reaction. […] Primers for Cd55 using photoreceptors isolated by LCM were obtained through Integrated DNA Technologies using their online Primer Quest design tool and importing the NCBI ID number for the sequence (Forward 5′-[sequence]-3′ (SEQ ID NO: 5) and Reverse 5′-[sequence]-3′ (SEQ ID NO: 6)). RTPCR was run in triplicate and the average of each CT value used for analysis. All CT values were normalized to beta actin from each sample as an internal control. Final values were determined using the MET method.
# After 24 hours the mice were anesthetized under a heavy dose of avertin (2,2,2 tribromo ethanol, Sigma, T4, 840-2) at a working concentration of 10 mg/ml and injected at a dose of 0.25-0.5 mg/gram intraperitoneally. In one group the eyes were enucleated and frozen in OCT compound using isopropanol chilled by dry ice. The eyes were then processed for TUNEL labeling and quantified as described above. […]
Molecule,cell death (TUNEL positive cells in the ONL) ([1]; mice housed 24 hours after RD in a 75% oxygen chamber vs room air (approximately 21% oxygen)),"Fb expression, alternative pathway activation [2]","photoreceptor cell death (TUNEL positive cells in the ONL) ([1]; C3-/- mice, sub-retinal injection prior to Provisc, 24 hours after RD, vs PBS)"
"O=O [75% oxygen, oxygen]",significant reduction in cell death,significantly less Fb expression,–
cobra venom factor [CVF],–,–,significant up-regulation of photoreceptor cell death; also recorded: increased photoreceptor cell death after RD
